Data set [1] can be described thus: Live/Dead cytotoxicity assay, hybridoma supernatant. Format: cell-based. As to conditions: human, hybridoma supernatant (or cycloheximide positive control), calcein. The method, then:
Three human breast cancer cell lines were tested: MDA-MB-231, MDA-MB-468 and SKBR-3. […] The wells that served as the positive controls were aspirated until empty and 100 μL of sodium azide (NaN3) or cycloheximide was added. After 5 days of treatment, the plates were then emptied by inverting and blotting dry. […] The AR2A72.10 hybridoma produced specific cytotoxicity of 15,27 and 44 percent in MDA-MB-231, MDA-MB-468 and SKBR-3 cells respectively. The known non-specific cytotoxic agent cycloheximide produced cytotoxicity as expected given the limitations of in vitro biological assays.

The next data set concerns Hs888 Lu. As to conditions: 5 days; AR2A72.10 and AR3BD-26 20 μg/mL, anti-fas and anti-Her2/neu 10 μg/mL, anti-EGFR 5 μg/mL, cycloheximide 0.5 μM, NaN3 0.1%.

Read-outs that look alike come from different tables or passages of the source.

Procedure for Hs888 Lu: Antibodies were tested against a panel of ovarian cancer, and normal cell lines. Two ovarian cancer (OVCAR-3, Sk-OV-3) and non-cancer (CCD-27sk, Hs888.Lu) cell lines were obtained from the ATCC, Manassas, Va. A2780-cp, A2780-s, C-13, OV2008, ES-2, Hey, OCC-1, OVCA-429 were obtained from the Ottawa Regional Cancer Center (Ottawa, ON). The Live/Dead cytotoxicity assay was obtained from Molecular Probes (Eugene, Oreg.). The assays were performed according to the manufacturer's instructions with the changes outlined below. Cells were plated before the assay at the predetermined appropriate density. After 2 days, purified antibody or controls were diluted into media, and then 100 microliters were transferred to the cell plates and incubated in a 5 percent CO2 incubator for 5 days. The plate was then emptied by inverting and blotted dry. Room temperature DPBS containing MgCl2 and CaCl2 was dispensed into each well from a multi-channel squeeze bottle, tapped three times, emptied by inversion and then blotted dry. 50 microliters of the fluorescent calcein dye diluted in DPBS containing MgCl2 and CaCl2 was added to each well and incubated at 37° C. in a 5 percent CO2 incubator for 30 minutes. […]

`C[C@@H]1C[C@@H]([C@H](O)CC2CC(=O)NC(=O)C2)C(=O)[C@@H](C)C1` [Cycloheximide]: the cytotoxicity at 5 days in data set [1] (read-out: Cytotoxicity (%) MDA-MB-231 Average) is 49%; in data set [1] (read-out: Cytotoxicity (%) MDA-MB-468 Average), 24%; in data set [1] (read-out: Cytotoxicity (%) SKBR-3 Average) it was 56%.
On to `[N-]=[N+]=[N-]` [NaN3, sodium azide], for which the “In vitro cytotoxicity, Hs888 Lu (normal)” value in the data set on Hs888 Lu was “+++ (4/4 experiments greater than threshold cytotoxicity)”.
